Experimental data as given in patent US10632324B2, “Method for the treatment of skin tissues” (9127-4910 Quebec Inc., priority 2017, dated 2020).
Several values for one entry are separate records, joined by “and”; a condition that tells them apart may be missing. Equal entries are not always repeated. Entries after “also recorded” stand apart in the source; their conditions may differ.

Experiments:
Assay type in all cases: in vivo, human
[1] = system: facial papulo-pustular inflammatory acne lesions; test: Split-face radiant IR skin preparation prior to PDT, inflammatory acne of the face (Example 6)
Procedure: A person was treated for facial papulo-pustular inflammatory acne lesions. After performing an acetone scrub on the treatment area, a radiant IR skin preparation was done on the right side of their face (970 nm, 80 mW/cm2, for 30 min). Then 5-aminolevulinic acid (Levulan™ Kerastick™) was applied to the skin and left for 90 min incubation time. […] Radiant IR skin preparation allows for a reduction in the number of PDT treatments necessary for significant clinical improvements.

inflammatory acne = test: Randomized, controlled, rater-blinded split face/back trial of IR pre-treatment plus ALA-PDT vs ALA-PDT alone (Example 9); details: for Change from Baseline in Lesion Counts, Closed comedones, Median / Change from Baseline in Lesion Counts, Nodules, Median / Change from Baseline in Lesion Counts, Open comedones, Median / Change from Baseline in Lesion Counts, Papules, Median / Change from Baseline in Lesion Counts, Pustules, Median / Change from Baseline in Lesion Counts, Total Noninflammatory lesions, Median: week 4; for Change from Baseline in Lesion Counts, Total Inflammatory lesions, Median: week 4 (reduction); for Clinical Global Severity Assessment at Week-4, Median: six-point scale, grade 0 clear to 5 very severe (Table 1)
Procedure: One side was pre-treated for 15 minutes with radiant IR light emitting diode (LED) (970 nm), while the other side was used as control. ALA was then applied after which PDT LED (630 nm) was performed on the entire face or back surface. Blinded lesion counts and clinical global assessment of severity were performed based on digital photographs before and four weeks after the PDT procedure.
Inclusion criteria included patients with skin type I to III according to the Fitzpatrick Classification System [^xxviii]. Exclusion criteria comprised patients taking cortisone (Prednisone), anticoagulant therapy, or any drug known to increase photosensitivity. In addition, during the 12 months preceding the study, patients were required not to have used isotretinoin (Accutane), or applied topical steroids on the site to be treated. Moreover, oral antibiotics use, laser or topical anti-acne medication at the to-be-treated site were not permitted for eight weeks prior to the study. Patients gave written informed consent to participate in this trial in compliance with the US Code of Federal Regulations dealing with the conduct of clinical studies (21 CFR including parts 50 and 56 concerning informed consent and IRB regulations). The study was conducted according to Good Clinical Practice Guidelines and the principles of the Declaration of Helsinki, and was approved by the Institutional Review Board Services (Div. 1373737 Toronto, Canada).
Patients were assigned to a split face or split back group to allow for within-patient assessments of clinical effects. Assignment was based on the patient's problem area. One side was randomly (using a coin flip) assigned to receive IR pre-treatment and ALA-PDT, and the other ALA-PDT alone to serve as control. The IR pre-treatment consisted of a 15 minute exposure to radiant IR LED at 970 nm ([…] using the LumiPhase-R/IR™, OPUSMED Inc. Montreal, Canada) to reach peak H2O absorption inside-out temperature of 45° C. Papillary dermis temperature was monitored with a needle probe throughout the session and up to 40 minutes (Type-T thermocouple, Omega, Montreal, Canada). ALA (20% Levulan Kerastick, DUSA Pharmaceuticals, USA) was then applied on both sides for 60 minutes, after which PDT with LED at 630 nm (50 mW/cm^2, 70 J/cm^2) was performed on the entire face or back surface for a duration of 23 minutes (LumiPhase-R/B™, OPUSMED Inc. Montreal, Canada). No cooling method was used. Digital photographs (Canon Dual Flash EOS 10D, Canon, Tokyo, Japan with EX SIGMA 50 mm 1:2.8 macro lens, Sigma, Aizu, Japan) were taken prior to and four weeks after the procedure. Each photograph was taken maintaining identical ambient lighting, pose and camera angles.
Acne lesion counts were performed before and four weeks after the PDT treatment. All types of inflammatory (papules, pustules, nodules) and noninflammatory (open and closed comedones) acne lesions were counted. Lesion counts were performed based on the digital photographs by two non-treating physicians who were blinded to the treatment regimen (IR-treated or control side) and to the timing of the photographs (baseline or post-treatment).
The global severity of acne was assessed at the end of the study by the […] non-treating physicians, as described above, using a six-point rating scale (Table 1). Clinical success was defined by grades 0 (clear) or 1 (almost clear).
Adverse reactions were monitored throughout the study. Signs of erythema, oedema, scaling/crusting, bronzing, textural changes, hyperpigmentation, and hypopigmentation were documented during the time period of the clinical trial.
Cronbach's alpha was calculated to assess inter-rater reliability in assessments. Reliability was deemed acceptable if Cronbach alpha was […] allowing raters' assessments to be combined for analysis. The primary outcome variable was the percent change from baseline in inflammatory lesion count measured four weeks post-treatment. […]

[2] = system: conversion of 5-ALA to PpIX; test: FluoDerm fluorescence after 940 nm irradiation 8-53 h before 5-ALA, two subjects (Example 11); parameters: unit not given here
Procedure: In view of these promising results, another study with even longer delays before application of 5-ALA was performed. The back skin of two test subjects was irradiated with continuous wavelength and pulsed infrared light at 940 nm. These irradiations took place 50-53, 24-29, and 8-14 hours prior to the application of the 5-ALA. After a three-hour incubation period with the compound, a FluoDerm™ device was used to measure the fluorescence of the skin ([…]) a direct indication of the activity of 5-ALA. 5-ALA must penetrate the skin and then be converted to PpIX before any fluorescence increase can be observed. […] Conclusion: This preconditioning method uses a temperature-independent mechanism of action via cell signaling pathways as in photobiomodulation.

Compound: NCC(=O)CCC(=O)O [5-ALA, 5-aminolevulinic acid]
- lesion number reduction ([1]; IR treated side (970 nm, 80 mW/cm2, 30 min), 90 min incubation, one treatment): 60-70%
- clinical outcome of side without IR ([1]; untreated (no IR) side, PDT alone): needed an additional PDT session to achieve similar results
- Change from Baseline in Lesion Counts, Closed comedones, Median (inflammatory acne; Control side (ALA-PDT alone)): 0.00%
- Change from Baseline in Lesion Counts, Nodules, Median (inflammatory acne; Control side (ALA-PDT alone)): 20.00%
- Change from Baseline in Lesion Counts, Open comedones, Median (inflammatory acne; Control side (ALA-PDT alone)): 0.00%
- Change from Baseline in Lesion Counts, Papules, Median (inflammatory acne; Control side (ALA-PDT alone)): 38.10%
- Change from Baseline in Lesion Counts, Pustules, Median (inflammatory acne; Control side (ALA-PDT alone)): 0.00%
- Change from Baseline in Lesion Counts, Total Noninflammatory lesions, Median (inflammatory acne; Control side (ALA-PDT alone)): 0.00%
- Change from Baseline in Lesion Counts, Total Inflammatory lesions, Median (inflammatory acne; Control side (ALA-PDT alone), listed as ALA): 38% and 37.86%
- Clinical Global Severity Assessment at Week-4, Median (inflammatory acne; Control side): 2
- treatment-related adverse effects / tolerability (inflammatory acne; IR pre-treatment + ALA-PDT and ALA-PDT alone, listed as ALA): No unusual treatment-related adverse effects were observed; also recorded: overall well tolerated
- Clinical Global Severity Assessment at Week-4, Median (inflammatory acne; IR-Treated side): 1
- Change from Baseline in Lesion Counts, Closed comedones, Median (inflammatory acne; IR-Treated side): 0.00%
- Change from Baseline in Lesion Counts, Nodules, Median (inflammatory acne; IR-Treated side): 100.00%
- Change from Baseline in Lesion Counts, Open comedones, Median (inflammatory acne; IR-Treated side): 0.00%
- Change from Baseline in Lesion Counts, Papules, Median (inflammatory acne; IR-Treated side): 75.00%
- Change from Baseline in Lesion Counts, Pustules, Median (inflammatory acne; IR-Treated side): 37.65%
- Change from Baseline in Lesion Counts, Total Noninflammatory lesions, Median (inflammatory acne; IR-Treated side): 0.00%
- Change from Baseline in Lesion Counts, Total Inflammatory lesions, Median (inflammatory acne; IR-Treated side, listed as ALA): 73% and 73.21%
- clinical success rate (almost clear or clear categories) (inflammatory acne; IR-treated side, week-4): 78%
- additional benefit of IR-treated side in inflammatory lesion count reduction (inflammatory acne; IR-treated vs control side, week-4): 35%
- clinical success rate (almost clear or clear categories) (inflammatory acne; control side, week-4): 44%
- time until slight erythema post-PDT disappeared (inflammatory acne; most patients): ≤ 48 h
- duration of acneiform folliculitis (inflammatory acne; two patients): 3 to 4 days
- Fluoderm Reading ([2]; subject one, 14 hour time points, CW-940, 3 h incubation): 51.0
- Fluoderm Reading ([2]; subject one, 14 hour time points, D50-940, 3 h incubation): 44.5
- Fluoderm Reading ([2]; subject one, 24 hour time points, CW-940, 3 h incubation): 48.0
- Fluoderm Reading ([2]; subject one, 24 hour time points, D50-940, 3 h incubation): 36.5
- Fluoderm Reading ([2]; subject one, 50 hour time points, CW-940, 3 h incubation): 45.0
- Fluoderm Reading ([2]; subject one, 50 hour time points, D50-940, 3 h incubation): 35.0
- Fluoderm Reading ([2]; subject one, Control, Just 5-ALA, no irradiation): 37.0
- Fluoderm Reading ([2]; subject two, 8 hour time points, CW-940, 3 h incubation): 44.0
- Fluoderm Reading ([2]; subject two, 8 hour time points, D50-940, 3 h incubation): 49.0
- Fluoderm Reading ([2]; subject two, 8 hour time points, S50-940, 3 h incubation): 51.0
- Fluoderm Reading ([2]; subject two, 29 hour time points, CW-940, 3 h incubation): 47.0
- Fluoderm Reading ([2]; subject two, 29 hour time points, D50-940, 3 h incubation): 52.0
- Fluoderm Reading ([2]; subject two, 29 hour time points, S50-940, 3 h incubation): 47.5
- Fluoderm Reading ([2]; subject two, 53 hour time points, CW-940, 3 h incubation): 55.0
- Fluoderm Reading ([2]; subject two, 53 hour time points, D50-940, 3 h incubation): 46.5
- Fluoderm Reading ([2]; subject two, 53 hour time points, S50-940, 3 h incubation): 55.0
- Fluoderm Reading ([2]; subject two, Control, Just 5-ALA, no irradiation): 46.0
